Converted amounts (≈) assume the structure as drawn. Where two headings read alike, the source gives them in different places.
Assays:
[1] = tested on: West Nile Virus ATCC VR-82 (strain B956); assay: CPE inhibition assay against West Nile virus ATCC VR-82 (visual and neutral red reading); assay type: cell-based; conditions: Vero
[2] = tested on: West Nile virus New York Isolate; assay: CPE inhibition assay against West Nile virus New York isolate in Vero cells; assay type: cell-based
[3] = Cytotoxicity in toxicity control wells of the WNV tests; assay type: cell-based; conditions: African green monkey, Vero 76 cells (kidney), uninfected toxicity control wells
WNV [4] = assay: Virus yield reduction (VYR) assay, West Nile virus; assay type: cell-based; conditions: for EC90: West Nile virus, read-out: Virus yield reduction assay EC90
WNV [5] = assay: Inhibition of CPE assay at time points after initiation (Table 2); assay type: cell-based, West Nile virus; conditions: for EC50: West Nile virus, 144 h, read-out: Inhibition of CPE assay EC50
[6] = tested on: Yellow fever virus (YFV), 17D strain; assay: microbe, parasite or virus in culture; assay type: cell-based; conditions: Vero
[7] = tested on: Bovine viral diarrhea virus (BVDV), TN131 strain; assay: microbe, parasite or virus in culture; assay type: cell-based; conditions: Bovine viral diarrhea virus isolates and strains
[8] = tested on: Banzi virus (BV), H 336 strain; assay: microbe, parasite or virus in culture; assay type: cell-based; conditions: Vero
WNV [9] = conditions: Morrey et al., 2002; cited from earlier work
in vitro [10] = conditions: African green monkey
in vitro [11] = conditions: bovine
in vitro [12] = conditions: African green monkey; remark: listed apart in the source
GAPDH mRNA = assay: Cytotoxicity by GAPDH mRNA in HCV replicon-containing cells; conditions: FIG. 1B
[13] = 144 h, New York Isolate, Visual, Vero cells, 6 days post-virus exposure
[14] = New York Isolate, NR (Neutral red), Vero cells
[15] = ATCC VR-82 columns, NR (Neutral red)
[16] = New York Isolate columns, NR (Neutral red)
[17] = New York Isolate columns, Visual

## O=c1cnn([C@@H]2O[C@H](CO)[C@@H](O)[C@H]2O)c(=O)[nH]1 [6-aza-U, 6-azauridine, reference compound]
[1]
  EC50: 5 µg/mL (≈ 20.4 µM)
[1]; 144 h
  EC50: 22 µg/mL (≈ 89.7 µM)
[2]; [13]
  EC50: 0.9 µg/mL (≈ 3.67 µM)
[2]; [14]
  EC50: 1.6 µg/mL (≈ 6.53 µM)
[3]; [15]
  CC50 at 6 days: > 100 µg/mL
[3]; ATCC VR-82 columns, Visual
  CC50 at 6 days: 85 µg/mL (≈ 347 µM)
[3]; [16]
  CC50 at 6 days: > 100 µg/mL
[3]; [17]
  CC50 at 6 days: 85 µg/mL (≈ 347 µM)
WNV [4]; 48 h
  EC90: 1.6 µg/mL (≈ 6.53 µM)
WNV [4]; 144 h
  EC90: 431 µg/mL (≈ 1760 µM)
WNV [4]; day 6, compared to no addition of fresh compound
  Effect of addition of fresh compound every 2 days on VYR: did not improve
WNV [5]; 8 days post-virus initiation, cells treated with any concentration
  CPE observed: 100%
WNV [5]
  EC50: 3.1 µg/mL (≈ 12.6 µM)

## NC(=O)c1ncn([C@@H]2O[C@H](CO)[C@@H](O)[C@H]2O)n1 [Ribavirin, reference compound]
[6]
  EC50: 32 µg/mL (≈ 131 µM)
[7]
  EC50: 5 µg/mL (≈ 20.5 µM)
[8]
  EC50: 60 µg/mL (≈ 246 µM)
WNV [9]
  activity against WNV in tissue culture: poor activity
In vitro [10]
  CC50: > 100 µg/mL
In vitro [11]
  CC50: > 100 µg/mL
In vitro [12]
  CC50: > 100 µg/mL

## Nc1nc(=O)n2ccn([C@@H]3O[C@H](CO)[C@@H](O)[C@H]3O)c2n1 [ZX-2401, 2-amino-8-(β-D-ribofuranosyl) imidazo [1,2-a]-s-triazine-4-one]
[1]
  EC50: 3 µg/mL (≈ 10.6 µM)
[1]; 144 h
  EC50: < 4.6 µg/mL
[2]; [13]
  EC50: 9.5 µg/mL (≈ 33.5 µM)
[2]; MOI 1.6 × 10^−3, New York strain in Vero cells
  EC50: 20 µg/mL (≈ 70.6 µM)
[2]; MOI 1.6 × 10^−4, New York strain in Vero cells
  EC50: 12 µg/mL (≈ 42.4 µM)
[2]; MOI 5 × 10^−4, New York strain in Vero cells
  EC50: 15 µg/mL (≈ 53 µM)
[2]; MOI 5 × 10^−5 (5 CCID50), New York strain in Vero cells
  EC50: 15 µg/mL (≈ 53 µM)
[2]; [14]
  EC50: 8 µg/mL (≈ 28.2 µM)
[3]; [15]
  CC50 at 6 days: > 100 µg/mL
[3]; ATCC VR-82 columns, Visual
  CC50 at 6 days: > 100 µg/mL
[3]; [16]
  CC50 at 6 days: > 100 µg/mL
[3]; [17]
  CC50 at 6 days: > 100 µg/mL
WNV [4]; 48 h
  EC90: 3.3 µg/mL (≈ 11.7 µM)
WNV [4]; 144 h
  EC90: 40 µg/mL (≈ 141 µM)
WNV [5]
  EC50: 15 µg/mL (≈ 53 µM)
[6]
  EC50: 10 µg/mL (≈ 35.3 µM)
[7]
  EC50: 0.6 µg/mL (≈ 2.12 µM)
[8]
  EC50: 5 µg/mL (≈ 17.7 µM)
Vero cells
  Toxicity by visual inspection of treated uninfected cultures: No toxicity
In vitro [10]
  CC50: > 100 µg/mL
In vitro [11]
  CC50: > 100 µg/mL
In vitro [12]
  CC50: > 100 µg/mL
GAPDH mRNA
  toxicity as measured by GAPDH mRNA levels: no toxicity

— US20060035848A1, “Broad-spectrum inhibitor of viruses in the Flaviviridae family” (ZymeTx, Inc., priority 2004, published 2006)
